Test results published in PubChem BioAssay (NCI).
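Results reflect a 48-hour exposure of cells in 96-well plates to compound at five concentrations. GI50 = concentration required for 50% inhibition of growth. Definition used: TGI = concentration required for complete inhibition of growth.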

Assays:
Assay in all cases: inhibition of tumour cell growth, NCI panel, 48 h
786-0 renal = test system: 786-0 renal
SNB-75 CNS = test system: SNB-75 CNS
HCT-116 colon = test system: HCT-116 colon
NCI/ADR-RES ovarian = test system: NCI/ADR-RES ovarian
NCI-H23 lung = test system: NCI-H23 lung
SK-MEL-28 melanoma = test system: SK-MEL-28 melanoma
OVCAR-8 ovarian = test system: OVCAR-8 ovarian
HOP-92 NSCLC = test system: HOP-92 NSCLC
T-47D breast = test system: T-47D breast
COLO 205 colon = test system: COLO 205 colon
SK-MEL-5 melanoma = test system: SK-MEL-5 melanoma
HCC-2998 colon = test system: HCC-2998 colon
LOX IMVI melanoma = test system: LOX IMVI melanoma
SF-539 CNS = test system: SF-539 CNS
MOLT-4 leukemia = test system: MOLT-4 leukemia
NCI-H226 lung = test system: NCI-H226 lung
M14 melanoma = test system: M14 melanoma
PC-3 prostate = test system: PC-3 prostate
SR leukemia = test system: SR leukemia
HT29 colon = test system: HT29 colon
SF-268 CNS = test system: SF-268 CNS
SK-MEL-2 melanoma = test system: SK-MEL-2 melanoma
UACC-62 melanoma = test system: UACC-62 melanoma
BT-549 breast = test system: BT-549 breast
OVCAR-3 ovarian = test system: OVCAR-3 ovarian
NCI-H522 lung = test system: NCI-H522 lung
SW-620 colon = test system: SW-620 colon
MDA-MB-231 breast = test system: MDA-MB-231 breast
RXF 393 renal = test system: RXF 393 renal
NCI-H460 lung = test system: NCI-H460 lung
HL-60(TB) leukemia = test system: HL-60(TB) leukemia
SNB-19 CNS = test system: SNB-19 CNS
KM12 colon = test system: KM12 colon
OVCAR-5 ovarian = test system: OVCAR-5 ovarian
SK-OV-3 ovarian = test system: SK-OV-3 ovarian
OVCAR-4 ovarian = test system: OVCAR-4 ovarian
HS 578T breast = test system: HS 578T breast
A498 renal = test system: A498 renal
TK-10 renal = test system: TK-10 renal
MDA-MB-435 = test system: MDA-MB-435
CCRF-CEM leukemia = test system: CCRF-CEM leukemia
IGROV1 ovarian = test system: IGROV1 ovarian
MALME-3M melanoma = test system: MALME-3M melanoma
ACHN renal = test system: ACHN renal
CAKI-1 renal = test system: CAKI-1 renal
U251 CNS = test system: U251 CNS
SF-295 CNS = test system: SF-295 CNS
UO-31 renal = test system: UO-31 renal
HOP-62 NSCLC = test system: HOP-62 NSCLC
A549 NSCLC = test system: A549 NSCLC
MCF7 breast = test system: MCF7 breast
HCT-15 colon = test system: HCT-15 colon
RPMI-8226 leukemia = test system: RPMI-8226 leukemia
K-562 leukemia = test system: K-562 leukemia
UACC-257 melanoma = test system: UACC-257 melanoma
DU-145 prostate = test system: DU-145 prostate
SN12C renal = test system: SN12C renal
EKVX NSCLC = test system: EKVX NSCLC

`CC[C@@]1(O)C(=O)OCc2c1cc1n(c2=O)Cc2c-1nc1ccccc1c2/C=N/OC(C)(C)C` was tested. Which GI50 (786-0 renal) did it give?
The GI50 was < 10 nM.

What about the TGI (786-0 renal) of the same molecule?
Its TGI is 11200 nM.

What about the GI50 (SNB-75 CNS) of the same molecule?
The GI50 was < 10.9 nM.

And the TGI (SNB-75 CNS)?
The TGI was 978 nM.

And the GI50 (HCT-116 colon)?
The GI50 was < 10 nM.

And the TGI (HCT-116 colon)?
Its TGI is 13400 nM.

And the GI50 (NCI/ADR-RES ovarian)?
The GI50 was < 10 nM.

What about the TGI (NCI/ADR-RES ovarian) of the same molecule?
The TGI was 395 nM.

What about the GI50 (NCI-H23 lung) of the same molecule?
Its GI50 is < 10 nM.

And the TGI (NCI-H23 lung)?
Its TGI is 158 nM.

What about the GI50 (SK-MEL-28 melanoma) of the same molecule?
Its GI50 is 372 nM.

What about the TGI (SK-MEL-28 melanoma) of the same molecule?
The TGI was 9070 nM.

What about the GI50 (OVCAR-8 ovarian) of the same molecule?
The GI50 was < 11.8 nM.

And the TGI (OVCAR-8 ovarian)?
Its TGI is > 42100 nM.

And the GI50 (HOP-92 NSCLC)?
Its GI50 is < 14.9 nM.

And the TGI (HOP-92 NSCLC)?
Its TGI is 3400 nM.

And the GI50 (T-47D breast)?
Its GI50 is < 10 nM.

And the TGI (T-47D breast)?
The TGI was 15100 nM.

And the GI50 (COLO 205 colon)?
Its GI50 is 48.3 nM.

What about the TGI (COLO 205 colon) of the same molecule?
The TGI was 2050 nM.

What about the GI50 (SK-MEL-5 melanoma) of the same molecule?
The GI50 was < 10 nM.

And the TGI (SK-MEL-5 melanoma)?
The TGI was 102 nM.

And the GI50 (HCC-2998 colon)?
The GI50 was 183 nM.

What about the TGI (HCC-2998 colon) of the same molecule?
The TGI was 14100 nM.

And the GI50 (LOX IMVI melanoma)?
Its GI50 is < 10 nM.

What about the TGI (LOX IMVI melanoma) of the same molecule?
Its TGI is 133 nM.

What about the GI50 (SF-539 CNS) of the same molecule?
Its GI50 is < 10 nM.

What about the TGI (SF-539 CNS) of the same molecule?
Its TGI is < 21.6 nM.

What about the GI50 (MOLT-4 leukemia) of the same molecule?
The GI50 was < 10 nM.

What about the TGI (MOLT-4 leukemia) of the same molecule?
The TGI was 742 nM.

And the GI50 (NCI-H226 lung)?
Its GI50 is < 10 nM.

What about the TGI (NCI-H226 lung) of the same molecule?
Its TGI is 35.5 nM.

And the GI50 (M14 melanoma)?
Its GI50 is < 10 nM.

And the TGI (M14 melanoma)?
The TGI was 226 nM.

And the GI50 (PC-3 prostate)?
The GI50 was 76.9 nM.

And the TGI (PC-3 prostate)?
The TGI was 27200 nM.

What about the GI50 (SR leukemia) of the same molecule?
The GI50 was < 10 nM.

And the TGI (SR leukemia)?
Its TGI is 108 nM.

What about the GI50 (HT29 colon) of the same molecule?
The GI50 was 18.7 nM.

And the TGI (HT29 colon)?
The TGI was 660 nM.

And the GI50 (SF-268 CNS)?
The GI50 was < 10 nM.

What about the TGI (SF-268 CNS) of the same molecule?
Its TGI is 2800 nM.

And the GI50 (SK-MEL-2 melanoma)?
The GI50 was 44.7 nM.

And the TGI (SK-MEL-2 melanoma)?
The TGI was 1220 nM.

What about the GI50 (UACC-62 melanoma) of the same molecule?
Its GI50 is < 10 nM.

What about the TGI (UACC-62 melanoma) of the same molecule?
Its TGI is 118 nM.

What about the GI50 (BT-549 breast) of the same molecule?
The GI50 was < 13.9 nM.

What about the TGI (BT-549 breast) of the same molecule?
Its TGI is 2020 nM.

What about the GI50 (OVCAR-3 ovarian) of the same molecule?
Its GI50 is 80.4 nM.

What about the TGI (OVCAR-3 ovarian) of the same molecule?
The TGI was 1780 nM.

And the GI50 (NCI-H522 lung)?
Its GI50 is < 12.4 nM.

And the TGI (NCI-H522 lung)?
The TGI was 81.2 nM.

What about the GI50 (SW-620 colon) of the same molecule?
The GI50 was < 11 nM.

What about the TGI (SW-620 colon) of the same molecule?
The TGI was 14200 nM.

And the GI50 (MDA-MB-231 breast)?
The GI50 was 552 nM.

And the TGI (MDA-MB-231 breast)?
Its TGI is 18100 nM.

What about the GI50 (RXF 393 renal) of the same molecule?
The GI50 was < 10 nM.

And the TGI (RXF 393 renal)?
Its TGI is 63.9 nM.

What about the GI50 (NCI-H460 lung) of the same molecule?
Its GI50 is < 10 nM.

What about the TGI (NCI-H460 lung) of the same molecule?
The TGI was 1950 nM.

What about the GI50 (HL-60(TB) leukemia) of the same molecule?
The GI50 was < 10 nM.

What about the TGI (HL-60(TB) leukemia) of the same molecule?
Its TGI is < 12.5 nM.

And the GI50 (SNB-19 CNS)?
Its GI50 is < 10 nM.

And the TGI (SNB-19 CNS)?
Its TGI is 10900 nM.

What about the GI50 (KM12 colon) of the same molecule?
The GI50 was 44.1 nM.

What about the TGI (KM12 colon) of the same molecule?
The TGI was 4840 nM.

What about the GI50 (OVCAR-5 ovarian) of the same molecule?
Its GI50 is 113 nM.

What about the TGI (OVCAR-5 ovarian) of the same molecule?
Its TGI is 5470 nM.

And the GI50 (SK-OV-3 ovarian)?
Its GI50 is < 10 nM.

And the TGI (SK-OV-3 ovarian)?
Its TGI is 1340 nM.

What about the GI50 (OVCAR-4 ovarian) of the same molecule?
Its GI50 is 311 nM.

What about the TGI (OVCAR-4 ovarian) of the same molecule?
Its TGI is 13900 nM.

What about the GI50 (HS 578T breast) of the same molecule?
Its GI50 is 1130 nM.

And the TGI (HS 578T breast)?
The TGI was > 85500 nM.

What about the GI50 (A498 renal) of the same molecule?
The GI50 was < 16.9 nM.

And the TGI (A498 renal)?
Its TGI is 169 nM.

And the GI50 (TK-10 renal)?
Its GI50 is 78.7 nM.

And the TGI (TK-10 renal)?
Its TGI is 3520 nM.

What about the GI50 (MDA-MB-435) of the same molecule?
Its GI50 is 30.1 nM.

And the TGI (MDA-MB-435)?
Its TGI is 3920 nM.

What about the GI50 (CCRF-CEM leukemia) of the same molecule?
Its GI50 is < 10 nM.

And the TGI (CCRF-CEM leukemia)?
Its TGI is > 100000 nM.

What about the GI50 (IGROV1 ovarian) of the same molecule?
The GI50 was 39.1 nM.

And the TGI (IGROV1 ovarian)?
The TGI was 5260 nM.

And the GI50 (MALME-3M melanoma)?
Its GI50 is 32 nM.

And the TGI (MALME-3M melanoma)?
Its TGI is 1580 nM.

What about the GI50 (ACHN renal) of the same molecule?
The GI50 was < 10 nM.

What about the TGI (ACHN renal) of the same molecule?
The TGI was 127 nM.

What about the GI50 (CAKI-1 renal) of the same molecule?
Its GI50 is < 10 nM.

And the TGI (CAKI-1 renal)?
Its TGI is 149 nM.

And the GI50 (U251 CNS)?
Its GI50 is < 10 nM.

And the TGI (U251 CNS)?
Its TGI is 812 nM.

What about the GI50 (SF-295 CNS) of the same molecule?
The GI50 was < 10 nM.

What about the TGI (SF-295 CNS) of the same molecule?
Its TGI is 599 nM.

What about the GI50 (UO-31 renal) of the same molecule?
Its GI50 is < 10 nM.

And the TGI (UO-31 renal)?
Its TGI is 122 nM.

And the GI50 (HOP-62 NSCLC)?
The GI50 was < 10 nM.

And the TGI (HOP-62 NSCLC)?
Its TGI is 530 nM.

And the GI50 (A549 NSCLC)?
Its GI50 is < 10 nM.

And the TGI (A549 NSCLC)?
The TGI was 1520 nM.

What about the GI50 (MCF7 breast) of the same molecule?
The GI50 was < 10 nM.

What about the TGI (MCF7 breast) of the same molecule?
The TGI was 5690 nM.

And the GI50 (HCT-15 colon)?
The GI50 was 82 nM.

What about the TGI (HCT-15 colon) of the same molecule?
The TGI was 25700 nM.

And the GI50 (RPMI-8226 leukemia)?
The GI50 was 11.6 nM.

And the TGI (RPMI-8226 leukemia)?
The TGI was 551 nM.

What about the GI50 (K-562 leukemia) of the same molecule?
The GI50 was 18.9 nM.

And the TGI (K-562 leukemia)?
Its TGI is > 100000 nM.

And the GI50 (UACC-257 melanoma)?
The GI50 was 66.6 nM.

And the TGI (UACC-257 melanoma)?
Its TGI is 1320 nM.

And the GI50 (DU-145 prostate)?
Its GI50 is < 10 nM.

And the TGI (DU-145 prostate)?
Its TGI is 13500 nM.

What about the GI50 (SN12C renal) of the same molecule?
The GI50 was < 10 nM.

What about the TGI (SN12C renal) of the same molecule?
The TGI was 4750 nM.

What about the GI50 (EKVX NSCLC) of the same molecule?
The GI50 was 73 nM.

What about the TGI (EKVX NSCLC) of the same molecule?
The TGI was 23800 nM.
